Experimental data from US20250230171A1 (MOMA Therapeutics, Inc., priority 2023, published 2025).
Where two headings read alike, the source gives them in different places.

Columns and labels:
DLD1 BRCA2 (−/−) cells = test: 7-day cell viability assay (CellTiter-Glo), DLD1 BRCA2 (−/−); format: cell-based, human; conditions: n=2, read-out: Viability IC50 (uM) DLD1 BRCA2 null
Method: (§1) Cell lines DLD1 WT and DLD1 BRCA2 (−/−) (Horizon Discovery Cat No. HD PAR-008 and HD-105-007) were plated in 384-well culture plates at seeding densities of 100cells/50 ul/well and 200 cells/50 uL/well respectively. The seeding densities are pre-determined from the growth curve kinetics performed to ensure log linear phase of cell growth for these 2 cell lines. These assay plates are then placed in the incubator at 37° C., 5% CO2, relative humidity >90% for a few hours before addition of test compounds. Compounds are dispensed using the Tecan HPD300 or Echo based on the plate map in the appropriate wells of the 384-well plates. The cells are treated with nine-point dose response with 3-fold serial dilutions of test compounds starting at 10 uM top concentration. After addition of the test compounds, the plates are incubated at 37° C., 5% CO2, relative humidity >90% for 7 days. CellTiter-Glo (Promega Cat. No. G7573), ATP detection reagent is prepared according to manufacturer's specifications. Cell assay plates are removed from incubator and bring to room temperature (RT) by letting them sit at bench top for at least 15 min. Using the MultiDrop liquid handler or a multichannel pipette, 35 μL/well of CTG is added and the plates are then placed shakes for 5 seconds, RT.

DLD1 WT cells = test: 7-day cell viability assay (CellTiter-Glo), DLD1 parental (WT); format: cell-based, human; conditions: n=2
Method: as §1

[1] = molecular target: biotinylated Avi-POLθ[2-894] (Homo sapiens (Human), UniProt O75417); test: POLθ ATPase assay (ADP-Glo); conditions: n=2, read-out: Biochemical ATPase ADPGlo IC50
[2] = Homo sapiens, DLD-1, 168 h, 7-day CellTiter-Glo
[3] = Homo sapiens, DLD-1, 168 h, 7-day viability

biotinylated Avi-POLθ[2-894], sequence (O75417 2-894): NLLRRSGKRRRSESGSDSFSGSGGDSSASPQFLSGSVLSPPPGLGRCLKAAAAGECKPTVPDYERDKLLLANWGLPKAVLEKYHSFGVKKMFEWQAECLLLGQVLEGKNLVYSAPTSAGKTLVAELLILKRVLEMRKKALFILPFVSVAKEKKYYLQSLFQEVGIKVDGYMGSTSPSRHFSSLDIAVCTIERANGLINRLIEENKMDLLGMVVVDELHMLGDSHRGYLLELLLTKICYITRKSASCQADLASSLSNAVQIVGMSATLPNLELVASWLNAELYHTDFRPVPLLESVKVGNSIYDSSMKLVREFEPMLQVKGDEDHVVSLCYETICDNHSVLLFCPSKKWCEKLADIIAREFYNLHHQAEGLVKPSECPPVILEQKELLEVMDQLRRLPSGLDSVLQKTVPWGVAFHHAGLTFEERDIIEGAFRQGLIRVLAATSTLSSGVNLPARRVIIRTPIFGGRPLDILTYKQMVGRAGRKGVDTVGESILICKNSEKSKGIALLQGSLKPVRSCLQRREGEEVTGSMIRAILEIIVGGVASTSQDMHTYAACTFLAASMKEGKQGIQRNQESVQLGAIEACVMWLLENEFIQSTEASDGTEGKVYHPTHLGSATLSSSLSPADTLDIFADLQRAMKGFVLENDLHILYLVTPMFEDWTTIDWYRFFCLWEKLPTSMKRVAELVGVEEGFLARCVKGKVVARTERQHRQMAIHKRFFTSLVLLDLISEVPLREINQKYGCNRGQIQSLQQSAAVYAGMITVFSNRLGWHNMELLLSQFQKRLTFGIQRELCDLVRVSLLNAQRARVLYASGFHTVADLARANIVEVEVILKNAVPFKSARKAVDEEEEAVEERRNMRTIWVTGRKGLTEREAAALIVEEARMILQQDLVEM

| Compound | IC50 [1] | IC50 ([1]; POLθ ATPase, ADP-Glo) | other results |
| --- | --- | --- | --- |
| COc1cnc(Cl)cc1-c1cc(C)ncc1C(=O)Nc1nc2c(s1)CN(C(=O)c1ccc(OC(F)F)cc1)C2 |  |  | IC50 (DLD1 BRCA2 (−/−) cells; [2]): 0.001 to 0.1 µM; IC50 (DLD1 WT cells; [2]): ≥ 10 µM |
| COc1cnc(Cl)cc1-c1cc(C)ncc1C(=O)Nc1nc2c(s1)CN(C(=O)c1nc(C)cnc1C)C2 |  |  | IC50 (DLD1 BRCA2 (−/−) cells; [2]): 0.1 to 0.25 µM; IC50 (DLD1 WT cells; [2]): ≥ 10 µM |
| COc1cnc(Cl)cc1-c1cc(C)ncc1C(=O)Nc1nc2c(s1)CN(C(=O)c1ccc(C)c(Cl)n1)C2 |  |  | IC50 (DLD1 BRCA2 (−/−) cells; [2]): 0.001 to 0.1 µM; IC50 (DLD1 WT cells; [2]): ≥ 10 µM |
| 2′-Chloro-5′-methoxy-6-methyl-N-(5-(3-methylpyrazine-2-carbonyl)-5,6-dihydro-4H-pyrrolo[3,4-d]thiazol-2-yl)-[4,4′-bipyridine]-3-carboxamide [Example 412] | 1 to 15 nM |  | IC50 (DLD1 WT cells; 7-day viability): ≥ 10 µM |
| 2′-Chloro-N-(5-(6-chloro-4-methylpicolinoyl)-5,6-dihydro-4H-pyrrolo[3,4-d]thiazol-2-yl)-5′-methoxy-6-methyl-[4,4′-bipyridine]-3-carboxamide [Example 390] |  | 1 to 15 nM | IC50 (DLD1 BRCA2 (−/−) cells; 7-day CellTiter-Glo): 0.001 to 0.1 µM |
| 2′-chloro-5′-methoxy-6-methyl-N-(5-(thiazole-2-carbonyl)-5,6-dihydro-4H-pyrrolo[3,4-d]thiazol-2-yl)-[4,4′-bipyridine]-3-carboxamide [Example 608] |  |  | IC50 (DLD1 WT cells; 7-day CellTiter-Glo): ≥ 10 µM |
| 2′-chloro-5′-methoxy-N-(5-(8-methoxyimidazo[1,5-a]pyridine-5-carbonyl)-5,6-dihydro-4H-pyrrolo[3,4-d]thiazol-2-yl)-6-methyl-[4,4′-bipyridine]-3-carboxamide [Example 627] |  |  | IC50 (DLD1 BRCA2 (−/−) cells; 7-day CellTiter-Glo): 0.001 to 0.1 µM |
| COc1cnc(Cl)cc1-c1cc(C)ncc1C(=O)Nc1nc2c(s1)CN(C(=O)c1ccc(Cl)nc1OC)C2 [Example 20, 2′-chloro-N-(5-(6-chloro-2-methoxynicotinoyl)-5,6-dihydro-4H-pyrrolo[3,4-d]thiazol-2-yl)-5′-methoxy-6-methyl-[4,4′-bipyridine]-3-carboxamide] | 1 to 15 nM |  | IC50 (DLD1 BRCA2 (−/−) cells; [3]): 0.001 to 0.1 µM |
| COc1cnc(Cl)cc1-c1cc(C)ncc1C(=O)Nc1nc2c(s1)CN(C(=O)[C@H]1C[C@@H](OC(F)(F)F)C1)C2 [Example 25, 2′-chloro-5′-methoxy-6-methyl-N-(5-((1s,3s)-3-(trifluoromethoxy)cyclobutane-1-carbonyl)-5,6-dihydro-4H-pyrrolo[3,4-d]thiazol-2-yl)-[4,4′-bipyridine]-3-carboxamide] | 1 to 15 nM |  | IC50 (DLD1 BRCA2 (−/−) cells; [3]): 0.001 to 0.1 µM |
| COc1cnc(Cl)cc1-c1cc(C)ncc1C(=O)Nc1nc2c(s1)CN(C(=O)c1c3c(nn1C)CCC3)C2 [Example 54, 2′-chloro-5′-methoxy-6-methyl-N-(5-(2-methyl-2,4,5,6-tetrahydrocyclopenta[c]pyrazole-3-carbonyl)-5,6-dihydro-4H-pyrrolo[3,4-d]thiazol-2-yl)-[4,4′-bipyridine]-3-carboxamide] | 1 to 15 nM |  | IC50 (DLD1 BRCA2 (−/−) cells; [3]): 0.001 to 0.1 µM |
| CCc1nn(C)c(C(=O)N2Cc3nc(NC(=O)c4cnc(C)cc4-c4cc(Cl)ncc4OC)sc3C2)c1Cl [Example 56, 2′-chloro-N-(5-(4-chloro-3-ethyl-1-methyl-1H-pyrazole-5-carbonyl)-5,6-dihydro-4H-pyrrolo[3,4-d]thiazol-2-yl)-5′-methoxy-6-methyl-[4,4′-bipyridine]-3-carboxamide] | 1 to 15 nM |  | IC50 (DLD1 BRCA2 (−/−) cells; [3]): 0.001 to 0.1 µM |
| CCc1c(Cl)c(C(=O)N2Cc3nc(NC(=O)c4cnc(C)cc4-c4cc(Cl)ncc4OC)sc3C2)nn1C [Example 70, 2′-chloro-N-(5-(4-chloro-5-ethyl-1-methyl-1H-pyrazole-3-carbonyl)-5,6-dihydro-4H-pyrrolo[3,4-d]thiazol-2-yl)-5′-methoxy-6-methyl-[4,4′-bipyridine]-3-carboxamide] | 1 to 15 nM |  | IC50 (DLD1 BRCA2 (−/−) cells; [3]): 0.001 to 0.1 µM |
| COc1ccccc1-c1cc(C)ncc1C(=O)Nc1nc2c(s1)CN(C(=O)c1ccccn1)C2 [Example 323] | 150 to 900 nM |  |  |
| COc1ccccc1-c1cc(C)ncc1C(=O)Nc1nc2c(s1)CN(C(=O)C1CCCCO1)C2 (stereo not drawn) [Example 324, 4-(2-methoxyphenyl)~6-methyl-N-(5-{3-oxabicyclo[3.1.0]hexane-6-carbonyl}-4H,5H,6H-pyrrolo[3,4-d][1,3]thiazol-2-yl)pyridine-3-carboxamide] | 150 to 900 nM |  |  |
| COc1ccccc1-c1cc(C)ncc1C(=O)Nc1nc2c(s1)CC(c1ccc(Cl)cc1)=CC2 [Example 328] | 150 to 900 nM |  |  |
| COc1ccccc1-c1cc(C)ncc1C(=O)Nc1nc2c(s1)CN(C(=O)OC(C)(C)C)CC2 [Example 335] | 150 to 900 nM |  |  |
| COc1ccccc1-c1cc(C)ncc1C(=O)Nc1nc2c(s1)CN(C(=O)c1cccnn1)C2 [Example 342, 4-(2-methoxyphenyl)~6-methyl-N-[5-(1-methyl-6-oxo-1,6-dihydropyridine-3-carbonyl)-4H,5H,6H-pyrrolo[3,4-d][1,3]thiazol-2-yl]pyridine-3-carboxamide] | 150 to 900 nM |  |  |
| COc1ccccc1-c1cc(C)ncc1C(=O)Nc1nc2c(s1)CN(C(=O)C1CCNC1=O)C2 (stereo not drawn) [Example 345] | 150 to 900 nM |  |  |
| COc1ccccc1-c1cc(C)ncc1C(=O)Nc1nc2c(s1)CN(C1CC1)C2=O [Example 352, N-(5-cyclopropyl-4-oxo-5,6-dihydro-4H-pyrrolo[3,4-d]thiazol-2-yl)-4-(2-methoxyphenyl)-6-methylnicotinamide] | ≥ 900 nM |  |  |
| COc1ccccc1-c1cc(C)ncc1C(=O)Nc1nc2c(s1)CC(=O)CC2 [Example 373] | ≥ 900 nM |  |  |
| N-(5-(1H-pyrazole-4-carbonyl)-5,6- dihydro-4H-pyrrolo[3,4-d]thiazol-2-yl)- 2′-chloro-5′-methoxy-6-methyl-[4,4′- bipyridine]-3-carboxamide [Example 88] | 15 to 50 nM |  |  |
| N-(5-(1H-pyrazole-5-carbonyl)-5,6- dihydro-4H-pyrrolo[3,4-d]thiazol-2-yl)- 2′-chloro-5′-methoxy-6-methyl-[4,4′- bipyridine]-3-carboxamide [Example 86] | 1 to 15 nM |  |  |
| N-(5-(benzo[d]oxazole-2-carbonyl)-5,6-dihydro-4H-pyrrolo[3,4-d]thiazol-2-yl)-2′-chloro-5′-methoxy-6-methyl-[4,4′-bipyridine]-3-carboxamide [Example 615] |  |  | IC50 (DLD1 WT cells; 7-day CellTiter-Glo): ≥ 10 µM |

Now from value to compound, other results behind:

| IC50 [1] | IC50 ([1]; POLθ ATPase, ADP-Glo) | Compound | other results |
| --- | --- | --- | --- |
|  | 1 to 15 nM | COc1cnc(Cl)cc1-c1cc(C)ncc1C(=O)Nc1nc2c(s1)CN(C(=O)c1nc(C(F)F)cnc1OC)C2 [Example 468] | IC50 (DLD1 BRCA2 (−/−) cells; [2]): 0.001 to 0.1 µM |
|  | 1 to 15 nM | COc1cnc(Cl)cc1-c1cc(C)ncc1C(=O)Nc1nc2c(s1)CN(C(=O)c1cnc(C(F)(F)F)nc1)C2 [Example 483] |  |
|  | 1 to 15 nM | COc1cnc(Cl)cc1-c1cc(C)ncc1C(=O)Nc1nc2c(s1)CN(C(=O)c1cccnc1OC(F)F)C2 [Example 525] |  |
|  | 1 to 15 nM | COc1cncc(C(=O)N2Cc3nc(NC(=O)c4cnc(C)cc4-c4cc(Cl)ncc4OC)sc3C2)n1 [Example 528] |  |
|  | 150 to 900 nM | COc1cnc(Cl)cc1-c1cc(C)ncc1C(=O)Nc1nc2c(s1)C[C@@H](C(=O)N[C@H]1C[C@H](O)C1)CC2 [Example 669] |  |
|  | 150 to 900 nM | COc1cnc(Cl)cc1-c1cc(C)ncc1C(=O)Nc1nc2c(s1)C[C@@H](C(=O)N1CC[C@@H](O)C1)CC2 [Example 681] |  |
|  | 1 to 15 nM | COc1cnc(Cl)cc1-c1cc(C)ncc1C(=O)Nc1nc2c(s1)CN(C(=O)[C@@H]1CC[C@](O)(C(F)(F)F)C1)C2 [Example 734, 2′-chloro-N-(5-((1R,3R)-3-hydroxy-3-(trifluoromethyl)cyclopentane-1-carbonyl)-5,6-dihydro-4H-pyrrolo[3,4-d]thiazol-2-yl)-5′-methoxy-6-methyl-[4,4′-bipyridine]-3-carboxamide] |  |
|  | 1 to 15 nM | COc1cnc(Cl)cc1-c1cc(C)ncc1C(=O)Nc1nc2c(s1)CN(C(=O)[C@H]1CC[C@](O)(C(F)(F)F)C1)C2 [Example 736, 2′-chloro-N-(S-((1S,3R)-3-hydroxy-3-(trifluoromethyl)cyclopentane-1-carbonyl)-5,6-dihydro-4H-pyrrolo[3,4-d]thiazol-2-yl)-5′-methoxy-6-methyl-[4,4′-bipyridine]-3-carboxamide] |  |
|  | 1 to 15 nM | COc1cnc(Cl)cc1-c1cc(C)ncc1C(=O)Nc1nc2c(s1)CN(C(=O)[C@@H]1CCC[C@](O)(C(F)(F)F)C1)C2 [Example 761] |  |
|  | ≥ 900 nM | COc1nc(C(=O)N2Cc3nc(NC(=O)c4cnc(C)cc4-c4cc(Cl)cnc4O)sc3C2)c(C)cc1C(F)(F)F [Example 1043, 5-chloro-2-hydroxy-N-(5-(6-methoxy-3-methyl-5-(trifluoromethyl)picolinoyl)-5,6-dihydro-4H-pyrrolo[3,4-d]thiazol-2-yl)-6′-methyl-[3,4′-bipyridine]-3′-carboxamide] |  |
|  | ≥ 900 nM | COc1nc(C(F)(F)F)ccc1C(=O)N1Cc2nc(NC(=O)c3cnc(C)cc3-c3cc(Cl)c[nH]c3=O)sc2C1 [Example 1045, 5-chloro-N-(5-(2-methoxy-6-(trifluoromethyl)nicotinoyl)-5,6-dihydro-4H-pyrrolo[3,4-d]thiazol-2-yl)-6′-methyl-2-oxo-1,2-dihydro-[3,4′-bipyridine]-3′-carboxamide] |  |
